Experimental data as given in patent publication US11572369B2, “Bicyclic pyridine compositions and methods of using the same for cancer therapy” (UNIVERSITY OF SOUTH CAROLINA, priority 2019, dated 2023).

Assays:
Test in all cases: KINOMEscan
Assay type in all cases: binding
Settings in all cases: 2000 nM
BRSK2 = target: T1, BRSK2 (Homo sapiens, UniProt Q8IWQ3)
T1 construct: DNA label (for qPCR read-out); purchased KINOMEscan scanMAX panel (DiscoveRx)

CDK4-cyclinD3 = target: T2, CDK4-cyclinD3 (Homo sapiens, UniProt P11802)
T2 construct: purchased DiscoverX (KINOMEscan service)

CDK8 = target: T3, CDK8 (Homo sapiens, UniProt P49336)
T3 construct: DNA label (qPCR read-out); purchased DiscoverX (assay service)

CSF1R = target: T4, CSF1R (Homo sapiens, UniProt P07333)
T4 construct: DNA label (for qPCR read-out); purchased DiscoveRx (KINOMEscan scanMAX service)

CSNK1G1 = target: T5, CSNK1G1 (Homo sapiens, UniProt Q9HCP0)
T5 construct: DNA label; purchased DiscoveRx (KINOMEscan scanMAX panel)

CSNK1G3 = target: T6, CSNK1G3 (Homo sapiens, UniProt Q9Y6M4)
T6 construct: DNA label; purchased DiscoveRx (KINOMEscan scanMAX panel)

DAPK1 = target: T7, DAPK1 (Homo sapiens, UniProt P53355)
T7 construct: DNA label; purchased DiscoveRx (KINOMEscan scanMAX panel)

DYRK1A = target: T8, DYRK1A (Homo sapiens, UniProt Q13627)
T8 construct: DNA label (qPCR read-out); purchased KINOMEscan (DiscoveRx) panel

DYRK1B = target: T9, DYRK1B (Homo sapiens, UniProt Q9Y463)
T9 construct: DNA label (qPCR read-out); purchased KINOMEscan (DiscoveRx) panel

ERK1 = target: T10, ERK1 (Homo sapiens, UniProt P27361)
T10 construct: DNA label (qPCR read-out); purchased DiscoveRx (KINOMEscan ScanMAX panel)

ERK4 = target: T11, ERK4 (Homo sapiens, UniProt P31152)
T11 construct: DNA label (qPCR read-out); purchased DiscoveRx (KINOMEscan ScanMAX panel)

FAK = target: T12, FAK (Homo sapiens, UniProt Q05397)
T12 construct: DNA label (qPCR read-out); purchased DiscoveRx (KINOMEscan ScanMAX panel)

FGR = target: T13, FGR (Homo sapiens, UniProt P09769)
T13 construct: purchased DiscoveRx (KINOMEscan scanMAX panel)

FLT3(D835H) = target: T14, FLT3(D835H) (Homo sapiens, UniProt P36888, D835H)
T14 construct: purchased DiscoveRx (KINOMEscan scanMAX panel)

GRK1 = target: T15, GRK1 (Homo sapiens, UniProt Q15835)
T15 construct: purchased KINOMEscan (DiscoveRx)

GRK7 = target: T16, GRK7 (Homo sapiens, UniProt Q8WTQ7)
T16 construct: DNA label (for qPCR read-out); purchased DiscoveRx (KINOMEscan scanMAX panel, contract assay)

HUNK = target: T17, HUNK (Homo sapiens, UniProt P57058)
T17 construct: DNA label (qPCR read-out); purchased KINOMEscan (DiscoveRx) ScanMAX panel

KIT (D816H) = target: T18, KIT (D816H) (Homo sapiens, UniProt P10721, D816H)
T18 construct: DNA label (for qPCR read-out); purchased DiscoveRx (KINOMEscan scanMAX panel)

KIT(L576P) = target: T19, KIT(L576P) (Homo sapiens, UniProt P10721, L576P)
T19 construct: DNA label (for qPCR read-out); purchased DiscoveRx (KINOMEscan scanMAX panel)

KIT(V559D, V654A) = target: T20, KIT(V559D, V654A) (Homo sapiens, UniProt P10721, V559D/V654A)
T20 construct: purchased KINOMEscan (DiscoveRx) panel service

LRRK2(G2019S) = target: T21, LRRK2(G2019S) (Homo sapiens, UniProt Q5S007, G2019S)
T21 construct: purchased KINOMEscan (DiscoveRx) panel service

LZK = LZK (Homo sapiens, UniProt O43283)
NEK3 = target: T22, NEK3 (Homo sapiens, UniProt P51956)
T22 construct: DNA label (qPCR read-out); purchased KINOMEscan (ScanMAX panel service)

PCTK1 = target: T23, PCTK1 (Homo sapiens, UniProt Q00536)
T23 construct: purchased DiscoverX (KINOMEscan service)

PIK3CA(E545A) = target: T24, PIK3CA(E545A) (Homo sapiens, UniProt P42336, E545A)
T24 construct: DNA label; purchased DiscoveRx (KINOMEscan scanMAX panel)

PIKFYVE = target: T25, PIKFYVE (Homo sapiens, UniProt Q9Y2I7)
T25 construct: DNA label; purchased DiscoveRx (KINOMEscan scanMAX panel)

PRKX = target: T26, PRKX (Homo sapiens, UniProt P51817)
T26 construct: purchased DiscoveRx (KINOMEscan scanMAX panel)

RAF1 = target: T27, RAF1 (Homo sapiens, UniProt P04049)
T27 construct: purchased DiscoveRx (KINOMEscan scanMAX panel)

ROCK2 = target: T28, ROCK2 (Homo sapiens, UniProt O75116)
T28 construct: DNA label (qPCR read-out); purchased DiscoveRx (KINOMEscan ScanMAX panel)

ROS1 = target: T29, ROS1 (Homo sapiens, UniProt P08922)
T29 construct: DNA label (qPCR read-out); purchased DiscoveRx (KINOMEscan ScanMAX panel)

[1] = target: T30, RSK4(Kin.Dom.2-C-terminal) (Homo sapiens, UniProt Q9UK32)
T30 construct: RSK4(Kin.Dom.2); purchased DiscoveRx (KINOMEscan scanMAX panel)

SYK = target: T31, SYK (Homo sapiens, UniProt P43405)
T31 construct: DNA label (for qPCR read-out); purchased DiscoveRx (KINOMEscan scanMAX panel, contract assay)

TAOK2 = target: T32, TAOK2 (Homo sapiens, UniProt Q9UL54)
T32 construct: DNA label (for qPCR read-out); purchased DiscoveRx (KINOMEscan scanMAX panel, contract assay)

VEGFR2 = target: T33, VEGFR2 (Homo sapiens, UniProt P35968)
T33 construct: DNA label (for qPCR read-out); purchased DiscoveRx (KINOMEscan scanMAX panel)

YANK2 = target: T34, YANK2 (Homo sapiens, UniProt Q9NY57)
T34 construct: purchased KINOMEscan (DiscoveRx) panel service

T17 sequence (P57058 whole entry): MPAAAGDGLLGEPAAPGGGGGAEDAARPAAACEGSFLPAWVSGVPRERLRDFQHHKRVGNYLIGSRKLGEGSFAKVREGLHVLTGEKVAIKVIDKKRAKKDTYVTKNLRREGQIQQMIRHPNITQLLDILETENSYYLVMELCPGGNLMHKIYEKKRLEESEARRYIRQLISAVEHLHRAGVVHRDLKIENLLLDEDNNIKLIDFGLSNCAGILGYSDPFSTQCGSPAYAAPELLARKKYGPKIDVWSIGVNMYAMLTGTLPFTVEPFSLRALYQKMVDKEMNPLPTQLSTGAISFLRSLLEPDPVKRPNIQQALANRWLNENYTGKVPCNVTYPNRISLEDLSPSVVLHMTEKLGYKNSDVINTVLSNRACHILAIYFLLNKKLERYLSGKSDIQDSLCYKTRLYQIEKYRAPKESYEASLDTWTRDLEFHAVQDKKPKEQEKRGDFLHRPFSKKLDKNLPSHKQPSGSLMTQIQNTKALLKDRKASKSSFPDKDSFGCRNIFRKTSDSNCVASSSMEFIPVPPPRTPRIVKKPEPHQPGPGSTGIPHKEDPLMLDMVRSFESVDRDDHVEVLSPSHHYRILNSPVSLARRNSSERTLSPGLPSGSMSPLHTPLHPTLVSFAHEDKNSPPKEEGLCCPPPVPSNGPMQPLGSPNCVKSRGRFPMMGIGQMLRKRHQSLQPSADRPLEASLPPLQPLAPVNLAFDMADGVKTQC
T20 sequence (P10721 26-976 V559D/V654A): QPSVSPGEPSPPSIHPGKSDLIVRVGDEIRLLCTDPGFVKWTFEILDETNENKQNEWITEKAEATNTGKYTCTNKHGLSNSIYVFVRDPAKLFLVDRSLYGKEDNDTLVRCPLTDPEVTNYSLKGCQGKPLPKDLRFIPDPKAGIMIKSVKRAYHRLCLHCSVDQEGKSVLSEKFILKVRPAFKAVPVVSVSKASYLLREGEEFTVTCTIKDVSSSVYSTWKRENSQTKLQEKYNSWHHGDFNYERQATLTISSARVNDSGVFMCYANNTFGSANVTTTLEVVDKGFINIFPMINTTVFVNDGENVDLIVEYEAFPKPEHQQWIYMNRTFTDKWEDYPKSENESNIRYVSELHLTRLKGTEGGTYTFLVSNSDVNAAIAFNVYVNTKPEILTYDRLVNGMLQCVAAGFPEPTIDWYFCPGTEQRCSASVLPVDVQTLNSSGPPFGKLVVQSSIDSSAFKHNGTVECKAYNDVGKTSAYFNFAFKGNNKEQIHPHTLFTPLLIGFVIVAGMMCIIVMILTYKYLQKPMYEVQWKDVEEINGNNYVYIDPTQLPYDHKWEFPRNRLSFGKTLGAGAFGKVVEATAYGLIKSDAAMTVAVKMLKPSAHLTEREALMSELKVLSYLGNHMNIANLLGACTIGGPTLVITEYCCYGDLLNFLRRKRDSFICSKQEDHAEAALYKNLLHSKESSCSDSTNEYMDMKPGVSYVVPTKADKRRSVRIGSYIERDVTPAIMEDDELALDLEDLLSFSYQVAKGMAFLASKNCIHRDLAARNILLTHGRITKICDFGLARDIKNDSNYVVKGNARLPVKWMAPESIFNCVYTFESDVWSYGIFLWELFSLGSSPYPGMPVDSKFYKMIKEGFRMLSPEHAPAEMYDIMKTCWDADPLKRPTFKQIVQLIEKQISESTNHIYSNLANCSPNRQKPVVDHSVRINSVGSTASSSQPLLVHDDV
T6 sequence (Q9Y6M4 whole entry): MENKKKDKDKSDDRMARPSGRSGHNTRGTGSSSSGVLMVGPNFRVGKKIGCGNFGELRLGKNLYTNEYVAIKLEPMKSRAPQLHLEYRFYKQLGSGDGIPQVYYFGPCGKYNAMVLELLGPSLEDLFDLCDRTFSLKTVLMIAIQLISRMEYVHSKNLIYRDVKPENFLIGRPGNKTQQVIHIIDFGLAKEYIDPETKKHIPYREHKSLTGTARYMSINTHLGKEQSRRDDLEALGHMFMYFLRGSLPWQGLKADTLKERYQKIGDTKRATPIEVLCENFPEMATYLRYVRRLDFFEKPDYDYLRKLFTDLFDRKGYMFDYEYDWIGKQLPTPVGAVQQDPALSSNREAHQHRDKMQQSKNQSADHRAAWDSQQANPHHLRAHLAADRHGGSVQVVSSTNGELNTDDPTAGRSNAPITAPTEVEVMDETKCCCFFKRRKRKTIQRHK
T28 sequence (O75116 whole entry): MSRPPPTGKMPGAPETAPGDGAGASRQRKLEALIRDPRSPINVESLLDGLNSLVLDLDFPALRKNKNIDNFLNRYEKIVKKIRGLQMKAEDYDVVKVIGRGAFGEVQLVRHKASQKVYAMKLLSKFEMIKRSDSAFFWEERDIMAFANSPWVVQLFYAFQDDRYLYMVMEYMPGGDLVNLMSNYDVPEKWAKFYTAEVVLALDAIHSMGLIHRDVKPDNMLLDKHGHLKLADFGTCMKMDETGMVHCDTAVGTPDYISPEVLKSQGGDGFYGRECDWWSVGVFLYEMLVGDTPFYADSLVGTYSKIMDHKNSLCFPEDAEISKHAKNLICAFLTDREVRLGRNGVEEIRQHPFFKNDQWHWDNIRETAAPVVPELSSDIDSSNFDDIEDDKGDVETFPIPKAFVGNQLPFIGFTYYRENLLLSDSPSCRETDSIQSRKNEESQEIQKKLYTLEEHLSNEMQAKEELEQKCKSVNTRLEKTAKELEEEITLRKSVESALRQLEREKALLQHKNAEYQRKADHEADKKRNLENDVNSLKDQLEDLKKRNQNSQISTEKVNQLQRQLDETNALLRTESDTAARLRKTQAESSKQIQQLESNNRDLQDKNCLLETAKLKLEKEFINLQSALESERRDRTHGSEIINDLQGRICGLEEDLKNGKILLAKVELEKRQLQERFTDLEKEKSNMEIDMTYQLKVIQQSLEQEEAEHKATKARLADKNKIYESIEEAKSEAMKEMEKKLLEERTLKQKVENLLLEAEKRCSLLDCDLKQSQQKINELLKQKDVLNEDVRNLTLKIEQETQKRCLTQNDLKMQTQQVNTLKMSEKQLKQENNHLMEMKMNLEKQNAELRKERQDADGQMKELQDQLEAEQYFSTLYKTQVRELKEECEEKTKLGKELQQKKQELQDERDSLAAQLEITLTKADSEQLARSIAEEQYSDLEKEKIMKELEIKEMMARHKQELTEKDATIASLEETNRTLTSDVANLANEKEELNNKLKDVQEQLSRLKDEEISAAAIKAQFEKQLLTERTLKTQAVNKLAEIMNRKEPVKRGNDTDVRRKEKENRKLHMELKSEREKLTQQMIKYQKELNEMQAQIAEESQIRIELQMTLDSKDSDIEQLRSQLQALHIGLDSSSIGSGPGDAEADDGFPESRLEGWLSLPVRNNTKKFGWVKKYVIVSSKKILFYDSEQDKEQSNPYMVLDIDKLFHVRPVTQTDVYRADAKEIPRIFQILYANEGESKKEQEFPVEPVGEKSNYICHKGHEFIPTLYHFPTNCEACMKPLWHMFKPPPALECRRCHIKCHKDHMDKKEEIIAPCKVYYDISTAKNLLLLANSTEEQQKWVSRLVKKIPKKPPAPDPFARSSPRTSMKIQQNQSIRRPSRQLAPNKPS
T5 sequence (Q9HCP0 whole entry): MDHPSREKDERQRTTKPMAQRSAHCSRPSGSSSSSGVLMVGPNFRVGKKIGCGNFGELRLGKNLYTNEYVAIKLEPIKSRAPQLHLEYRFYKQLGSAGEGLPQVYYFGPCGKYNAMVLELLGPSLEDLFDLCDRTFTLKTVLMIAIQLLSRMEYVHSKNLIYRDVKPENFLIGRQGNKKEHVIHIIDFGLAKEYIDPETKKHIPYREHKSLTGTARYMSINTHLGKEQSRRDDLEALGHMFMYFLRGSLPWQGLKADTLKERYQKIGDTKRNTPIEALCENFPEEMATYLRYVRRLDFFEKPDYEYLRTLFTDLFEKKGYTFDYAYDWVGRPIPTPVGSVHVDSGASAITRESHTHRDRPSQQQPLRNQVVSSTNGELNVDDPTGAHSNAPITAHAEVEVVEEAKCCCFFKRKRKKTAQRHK
T22 sequence (P51956 whole entry): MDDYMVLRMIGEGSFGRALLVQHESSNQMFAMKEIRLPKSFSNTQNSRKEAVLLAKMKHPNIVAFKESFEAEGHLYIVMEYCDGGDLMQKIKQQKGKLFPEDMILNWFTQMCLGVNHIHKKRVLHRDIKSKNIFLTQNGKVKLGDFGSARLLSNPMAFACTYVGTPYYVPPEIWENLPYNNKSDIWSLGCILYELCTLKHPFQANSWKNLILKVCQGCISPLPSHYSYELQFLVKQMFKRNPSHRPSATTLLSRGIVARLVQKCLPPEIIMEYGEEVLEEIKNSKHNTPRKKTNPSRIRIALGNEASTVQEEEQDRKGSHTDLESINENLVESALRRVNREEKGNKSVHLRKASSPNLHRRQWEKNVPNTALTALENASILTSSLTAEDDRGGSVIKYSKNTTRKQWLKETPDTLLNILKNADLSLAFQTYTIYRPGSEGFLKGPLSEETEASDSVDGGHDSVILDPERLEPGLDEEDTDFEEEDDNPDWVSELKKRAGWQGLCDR
T15 sequence (Q15835 whole entry): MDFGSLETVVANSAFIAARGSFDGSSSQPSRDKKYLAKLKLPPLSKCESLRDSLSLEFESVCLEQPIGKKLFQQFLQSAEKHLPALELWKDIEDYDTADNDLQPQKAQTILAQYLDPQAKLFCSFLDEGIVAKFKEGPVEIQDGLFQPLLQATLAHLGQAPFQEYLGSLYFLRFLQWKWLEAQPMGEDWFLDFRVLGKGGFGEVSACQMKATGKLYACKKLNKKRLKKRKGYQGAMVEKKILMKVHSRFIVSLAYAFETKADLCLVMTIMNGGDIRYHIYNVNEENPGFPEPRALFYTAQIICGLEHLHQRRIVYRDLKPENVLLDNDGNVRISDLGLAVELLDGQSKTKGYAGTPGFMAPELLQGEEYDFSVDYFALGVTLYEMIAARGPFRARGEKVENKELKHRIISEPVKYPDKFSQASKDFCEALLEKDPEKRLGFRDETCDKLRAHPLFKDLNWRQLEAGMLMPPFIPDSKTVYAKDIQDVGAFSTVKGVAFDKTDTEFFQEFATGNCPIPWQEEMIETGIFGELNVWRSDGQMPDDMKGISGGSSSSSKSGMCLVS
T18 sequence (P10721 26-976 D816H): as the sequence (P10721 26-976 V559D/V654A) above, with D534V, A629V, D791H counted along it

Row | Compound | % Ctrl (BRSK2) [% Ctrl] | % Ctrl (CDK4-cyclinD3) [% Ctrl] | % Ctrl (CDK8) [% Ctrl] | % Ctrl (CSF1R) [% Ctrl] | % Ctrl (CSNK1G1) [% Ctrl] | % Ctrl (CSNK1G3) [% Ctrl] | % Ctrl (DAPK1) [% Ctrl] | % Ctrl (DYRK1A) [% Ctrl] | % Ctrl (DYRK1B) [% Ctrl] | % Ctrl (ERK1) [% Ctrl] | % Ctrl (ERK4) [% Ctrl] | % Ctrl (FAK) [% Ctrl] | % Ctrl (FGR) [% Ctrl] | % Ctrl (FLT3(D835H)) [% Ctrl] | % Ctrl (GRK1) [% Ctrl] | % Ctrl (GRK7) [% Ctrl] | % Ctrl (HUNK) [% Ctrl] | % Ctrl (KIT (D816H)) [% Ctrl] | % Ctrl (KIT(L576P)) [% Ctrl] | % Ctrl (KIT(V559D, V654A)) [% Ctrl] | also measured
1 | [2H]C([2H])([2H])N(C(=O)c1ccc(N2CCCN(c3ccnc4sc(C(N)=O)c(N)c34)CC2)cc1)C([2H])([2H])[2H] [15u_D6, 3-amino-4-(4-(4-(bis(methyl-d3)carbamoyl)phenyl)-1,4-diazepan-1-yl)thieno[2,3-b]pyridine-2-carboxamide] | 100 | 97 | 0.25 | 95 | 80 | 80 | 88 | 22 | 100 | 97 | 100 | 96 | 100 | 76 | 81 | 92 | 100 | 66 | 75 | 100 | % Ctrl (LRRK2(G2019S)): 76 % Ctrl; % Ctrl (LZK): 87 % Ctrl; % Ctrl (NEK3): 76 % Ctrl; % Ctrl (PCTK1): 64 % Ctrl; % Ctrl (PIK3CA(E545A)): 92 % Ctrl; % Ctrl (PIKFYVE): 98 % Ctrl; % Ctrl (PRKX): 95 % Ctrl; % Ctrl (RAF1): 100 % Ctrl; % Ctrl (ROCK2): 80 % Ctrl; % Ctrl (ROS1): 100 % Ctrl; % Ctrl [1]: 79 % Ctrl; % Ctrl (SYK): 100 % Ctrl; % Ctrl (TAOK2): 93 % Ctrl; % Ctrl (VEGFR2): 84 % Ctrl; % Ctrl (YANK2): 84 % Ctrl
2 | CN(C)C(=O)c1ccc(N2CCCN(c3ccnc4sc(C(N)=O)c(N)c34)CC2)cc1 [15u, 3-amino-4-(4-(4-(dimethylcarbamoyl)phenyl)-1,4-diazepan-1-yl)thieno[2,3-b]pyridine-2-carboxamide] | 100 | 95 | 2.6 | 98 | 90 | 95 | 92 | 50 | 69 | 100 | 72 | 100 | 100 | 63 | 98 | 100 | 99 | 91 | 96 | 100 | % Ctrl (LRRK2(G2019S)): 90 % Ctrl; % Ctrl (LZK): 100 % Ctrl; % Ctrl (NEK3): 100 % Ctrl; % Ctrl (PCTK1): 92 % Ctrl; % Ctrl (PIK3CA(E545A)): 100 % Ctrl; % Ctrl (PIKFYVE): 91 % Ctrl; % Ctrl (PRKX): 94 % Ctrl; % Ctrl (RAF1): 97 % Ctrl; % Ctrl (ROCK2): 100 % Ctrl; % Ctrl (ROS1): 95 % Ctrl; % Ctrl [1]: 94 % Ctrl; % Ctrl (SYK): 95 % Ctrl; % Ctrl (TAOK2): 92 % Ctrl; % Ctrl (VEGFR2): 67 % Ctrl; % Ctrl (YANK2): 89 % Ctrl
